Activity calls are given as the source filed them.
Assays:
[1] = HIV-1 AD8 envelope cell-cell fusion blockers – cherry-pick, dose response (AID 652062); format: functional, cell-based;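 note: luciferase signal from cell-cell fusion driven by HIV-1 clade B AD8 Env; potency is for inhibitors of fusion seen as a drop in luminescence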
[2] = blockers of HIV-1 envelope-mediated cell-cell fusion – cherry-pick, dose response (AID 652057); format: functional, cell-based
[3] = biological target: T1, Histone-lysine N-methyltransferase NSD2 (Homo sapiens, UniProt O96028); format: biochemical
T1 sequence (O96028 whole entry): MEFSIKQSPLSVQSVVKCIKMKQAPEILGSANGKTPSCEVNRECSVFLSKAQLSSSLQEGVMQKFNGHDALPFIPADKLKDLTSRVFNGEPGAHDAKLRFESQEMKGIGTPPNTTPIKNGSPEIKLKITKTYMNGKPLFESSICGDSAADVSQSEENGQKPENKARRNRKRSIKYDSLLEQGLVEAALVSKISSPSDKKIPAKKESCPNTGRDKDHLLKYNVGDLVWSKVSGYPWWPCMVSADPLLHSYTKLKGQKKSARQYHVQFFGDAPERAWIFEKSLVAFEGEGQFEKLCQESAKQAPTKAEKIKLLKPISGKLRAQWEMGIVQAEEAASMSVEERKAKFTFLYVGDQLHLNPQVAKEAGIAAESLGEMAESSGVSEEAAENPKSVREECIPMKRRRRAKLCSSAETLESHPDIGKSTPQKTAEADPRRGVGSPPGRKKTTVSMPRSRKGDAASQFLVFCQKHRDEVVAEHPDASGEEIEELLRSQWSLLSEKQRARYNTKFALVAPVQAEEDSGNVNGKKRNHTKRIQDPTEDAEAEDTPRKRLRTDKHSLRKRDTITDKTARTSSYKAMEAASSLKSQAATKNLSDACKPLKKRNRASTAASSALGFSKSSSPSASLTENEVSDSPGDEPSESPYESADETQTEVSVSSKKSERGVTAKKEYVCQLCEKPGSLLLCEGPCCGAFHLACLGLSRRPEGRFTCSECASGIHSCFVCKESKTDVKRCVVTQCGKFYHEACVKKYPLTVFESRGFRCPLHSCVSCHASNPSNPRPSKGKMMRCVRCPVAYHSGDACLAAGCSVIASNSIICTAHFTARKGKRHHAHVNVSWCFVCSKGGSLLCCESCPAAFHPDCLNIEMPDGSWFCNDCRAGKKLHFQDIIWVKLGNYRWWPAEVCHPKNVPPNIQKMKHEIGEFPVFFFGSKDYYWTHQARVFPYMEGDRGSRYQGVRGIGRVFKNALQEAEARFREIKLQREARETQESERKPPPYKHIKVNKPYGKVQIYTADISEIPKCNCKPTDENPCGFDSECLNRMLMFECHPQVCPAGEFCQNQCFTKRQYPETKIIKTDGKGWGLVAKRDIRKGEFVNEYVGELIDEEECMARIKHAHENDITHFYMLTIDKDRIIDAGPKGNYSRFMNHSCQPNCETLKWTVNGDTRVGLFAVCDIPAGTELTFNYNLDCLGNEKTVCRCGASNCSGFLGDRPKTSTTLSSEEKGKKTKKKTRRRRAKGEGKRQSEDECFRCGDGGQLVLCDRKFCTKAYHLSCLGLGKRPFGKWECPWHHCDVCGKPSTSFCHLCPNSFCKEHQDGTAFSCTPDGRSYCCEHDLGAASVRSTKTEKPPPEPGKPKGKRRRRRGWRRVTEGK

[4] = intracellular Trypanosoma cruzi inhibitors in host cells – cell-based, plate reader, cherry-pick samples, set 3, dose response (AID 651818); format: functional;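 note: compounds incubated with infected cells for about four days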
Large T antigen = Large T antigen (Simian virus 40, UniProt P03070); format: functional, Betapolyomavirus macacae;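 note: Confirmatory-stage PubChem screen for compounds that inhibit SV40 T antigen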
H9c2 = test: cells; format: functional, cell-based; settings: Rattus norvegicus, H9c2, Myocardium;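 note: confirmatory concentration-response retest of ultra-high-throughput screening hits for modulation of myocardial damage; cell death induced by hydrogen peroxide oxidative stress; compound pretreatment for 60 min then peroxide exposure for 2 h; potency is for protecting the cells against peroxide damage rather than for killing them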
Vero [5] = test: cells; format: functional, cell-based; settings: Chlorocebus sabaeus
Vero [6] = test: cells; format: functional; settings: Chlorocebus sabaeus
[7] = biological target: T2, Heat shock factor protein 1 (Mus musculus, UniProt P38532); test: enhancement of HSF1-driven luciferase signal – cell-based, NIH3T3, luminescence, dose retest, confirmation (AID 435004); format: functional;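 note: stress induced by proteasome inhibitor MG132 added 30 min after compound; luciferase reporter driven by HSF1 response element in NIH3T3 cells; actives raise luminescence as potentiators of the MG132 stress response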
T2 sequence (P38532 whole entry): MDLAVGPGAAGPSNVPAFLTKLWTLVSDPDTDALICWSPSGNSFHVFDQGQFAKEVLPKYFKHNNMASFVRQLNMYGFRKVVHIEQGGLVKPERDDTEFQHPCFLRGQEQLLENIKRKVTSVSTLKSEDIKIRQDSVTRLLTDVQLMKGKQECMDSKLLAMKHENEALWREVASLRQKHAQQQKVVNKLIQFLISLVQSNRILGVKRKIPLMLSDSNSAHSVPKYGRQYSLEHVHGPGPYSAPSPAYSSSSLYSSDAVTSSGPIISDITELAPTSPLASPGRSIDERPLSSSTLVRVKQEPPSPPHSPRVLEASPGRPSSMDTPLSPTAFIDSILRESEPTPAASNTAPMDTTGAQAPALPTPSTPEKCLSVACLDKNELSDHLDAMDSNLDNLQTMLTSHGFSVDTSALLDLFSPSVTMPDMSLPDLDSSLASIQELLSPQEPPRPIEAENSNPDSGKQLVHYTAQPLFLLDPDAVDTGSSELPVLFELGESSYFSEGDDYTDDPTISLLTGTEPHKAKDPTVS

[8] = Luminescence Cell-Based Dose Retest to Confirm Inhibitors of Cancer Stem Cells. [Related pubchem assays (depositor defined):AID2717, AID2721]; format: functional; settings: Homo sapiens
Protein RecA = biological target: T3, Protein RecA (Mycobacterium tuberculosis, UniProt P9WHJ3); test: Fluorescence Cell-Free Homogeneous Dose Retest to Identify Inhibitors of RecA-Intein Splicing Activity. [Related pubchem assays (depositor defined):AID2097, AID2223, AID489010, AID492950]; format: functional
T3 sequence (P9WHJ3 whole entry): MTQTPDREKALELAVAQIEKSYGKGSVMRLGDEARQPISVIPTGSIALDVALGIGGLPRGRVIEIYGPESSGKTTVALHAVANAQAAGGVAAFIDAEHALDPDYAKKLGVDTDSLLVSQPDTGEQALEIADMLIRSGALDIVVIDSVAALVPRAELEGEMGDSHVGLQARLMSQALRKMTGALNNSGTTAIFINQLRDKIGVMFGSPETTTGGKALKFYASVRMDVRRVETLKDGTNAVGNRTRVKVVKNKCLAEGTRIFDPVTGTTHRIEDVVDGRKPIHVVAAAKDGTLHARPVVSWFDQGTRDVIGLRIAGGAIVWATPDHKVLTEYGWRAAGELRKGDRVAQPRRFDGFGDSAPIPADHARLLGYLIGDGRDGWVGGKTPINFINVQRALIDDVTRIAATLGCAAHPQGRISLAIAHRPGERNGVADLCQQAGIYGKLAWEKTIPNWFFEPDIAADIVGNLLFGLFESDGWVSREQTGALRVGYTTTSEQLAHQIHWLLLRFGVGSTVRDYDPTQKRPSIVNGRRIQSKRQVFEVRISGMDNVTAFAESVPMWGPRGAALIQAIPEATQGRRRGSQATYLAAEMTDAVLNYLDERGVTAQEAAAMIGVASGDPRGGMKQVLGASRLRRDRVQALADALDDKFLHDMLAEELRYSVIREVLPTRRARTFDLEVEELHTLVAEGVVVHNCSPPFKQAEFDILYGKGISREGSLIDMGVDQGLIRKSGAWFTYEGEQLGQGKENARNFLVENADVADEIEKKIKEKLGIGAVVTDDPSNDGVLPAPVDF

[9] = biological target: T4, Replicative DNA helicase DnaB (Mycobacterium tuberculosis, UniProt P9WMR3); test: DnaB intein splicing inhibitors, dose response, biochemical, cell-free fluorescence (AID 449749); format: functional
T4 sequence (P9WMR3 whole entry): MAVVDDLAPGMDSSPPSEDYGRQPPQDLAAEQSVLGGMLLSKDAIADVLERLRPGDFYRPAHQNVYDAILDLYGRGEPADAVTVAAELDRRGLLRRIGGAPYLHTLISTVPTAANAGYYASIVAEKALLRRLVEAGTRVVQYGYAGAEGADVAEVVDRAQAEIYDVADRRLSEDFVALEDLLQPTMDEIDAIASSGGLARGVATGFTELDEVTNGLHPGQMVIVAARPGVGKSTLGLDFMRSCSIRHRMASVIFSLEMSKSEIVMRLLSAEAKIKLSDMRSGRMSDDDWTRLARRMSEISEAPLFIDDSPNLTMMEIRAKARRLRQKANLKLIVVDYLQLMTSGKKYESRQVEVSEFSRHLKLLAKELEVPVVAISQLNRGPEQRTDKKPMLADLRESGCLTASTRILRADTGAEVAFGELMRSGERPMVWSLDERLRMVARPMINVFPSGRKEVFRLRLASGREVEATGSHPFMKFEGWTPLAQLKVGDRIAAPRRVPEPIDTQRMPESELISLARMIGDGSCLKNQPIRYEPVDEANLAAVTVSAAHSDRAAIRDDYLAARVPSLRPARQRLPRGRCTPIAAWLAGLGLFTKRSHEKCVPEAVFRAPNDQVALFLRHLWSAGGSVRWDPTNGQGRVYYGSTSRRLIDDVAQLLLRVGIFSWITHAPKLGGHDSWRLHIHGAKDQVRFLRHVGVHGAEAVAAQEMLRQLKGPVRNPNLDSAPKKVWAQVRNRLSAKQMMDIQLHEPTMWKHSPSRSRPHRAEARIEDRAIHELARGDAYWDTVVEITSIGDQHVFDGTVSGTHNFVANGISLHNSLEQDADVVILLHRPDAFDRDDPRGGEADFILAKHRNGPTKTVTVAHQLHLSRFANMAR

[10] = biological target: T5, Rac GTPase-activating protein 1 (Homo sapiens, UniProt Q9H0H5); test: blockers of MgcRacGAP-driven Rac1 GTP hydrolysis – biochemical, ADP Hunter fluorescence, primary and confirmatory, confirmation (AID 624330); format: functional
T5 sequence (Q9H0H5 whole entry): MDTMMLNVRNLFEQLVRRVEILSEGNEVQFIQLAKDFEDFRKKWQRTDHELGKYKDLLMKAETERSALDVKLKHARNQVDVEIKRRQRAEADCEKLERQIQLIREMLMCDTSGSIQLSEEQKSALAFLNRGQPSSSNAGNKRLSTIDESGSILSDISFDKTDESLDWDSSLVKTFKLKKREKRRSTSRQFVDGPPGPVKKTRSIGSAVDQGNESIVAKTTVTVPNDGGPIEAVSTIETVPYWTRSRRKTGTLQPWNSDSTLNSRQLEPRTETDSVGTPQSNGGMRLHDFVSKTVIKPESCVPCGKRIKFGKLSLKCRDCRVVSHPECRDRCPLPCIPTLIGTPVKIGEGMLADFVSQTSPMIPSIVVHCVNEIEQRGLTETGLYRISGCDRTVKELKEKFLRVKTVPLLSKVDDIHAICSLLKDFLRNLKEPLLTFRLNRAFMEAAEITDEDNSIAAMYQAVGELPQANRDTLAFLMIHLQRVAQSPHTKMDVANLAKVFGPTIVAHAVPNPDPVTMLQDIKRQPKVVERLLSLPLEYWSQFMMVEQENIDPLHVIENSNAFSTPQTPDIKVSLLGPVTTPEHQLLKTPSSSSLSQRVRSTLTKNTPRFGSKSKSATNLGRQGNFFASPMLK

HEK293 = test: EBV LMP1 TES2 canonical NF-kB signalling blockers – cell-based, HEK293, luciferase, cherry-pick, dose response (AID 588343); format: functional; settings: Homo sapiens
Paired box protein Pax-8 = Paired box protein Pax-8 (Homo sapiens, UniProt Q06710); test: PAX8 transcriptional activity inhibition in RMG-I – RMG-I cells, luciferase, cherry-pick, dose response (AID 687027); format: functional, cell-based;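 note: luciferase reporter driven by Pax8 target thyroperoxidase promoter measured by SteadyGlo luminescence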
[11] = non-specific 3'UTR reporter inhibition in Clone20-Shn3RL – cell-based, Renilla luciferase, cherry-picked, counter-screen for Shn3 inhibitor project, dose response (AID 624133); format: functional
[12] = reduction of Shn3 3'UTR-driven luciferase in osteoblasts – cell-based, Clone20 osteoblasts, firefly luciferase, cherry-picked, dose response (AID 624132); format: functional;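 note: firefly luciferase luminescence from reporter carrying the Shn3 3'UTR in osteoblasts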

Large T antigen, sequence (P03070 whole entry): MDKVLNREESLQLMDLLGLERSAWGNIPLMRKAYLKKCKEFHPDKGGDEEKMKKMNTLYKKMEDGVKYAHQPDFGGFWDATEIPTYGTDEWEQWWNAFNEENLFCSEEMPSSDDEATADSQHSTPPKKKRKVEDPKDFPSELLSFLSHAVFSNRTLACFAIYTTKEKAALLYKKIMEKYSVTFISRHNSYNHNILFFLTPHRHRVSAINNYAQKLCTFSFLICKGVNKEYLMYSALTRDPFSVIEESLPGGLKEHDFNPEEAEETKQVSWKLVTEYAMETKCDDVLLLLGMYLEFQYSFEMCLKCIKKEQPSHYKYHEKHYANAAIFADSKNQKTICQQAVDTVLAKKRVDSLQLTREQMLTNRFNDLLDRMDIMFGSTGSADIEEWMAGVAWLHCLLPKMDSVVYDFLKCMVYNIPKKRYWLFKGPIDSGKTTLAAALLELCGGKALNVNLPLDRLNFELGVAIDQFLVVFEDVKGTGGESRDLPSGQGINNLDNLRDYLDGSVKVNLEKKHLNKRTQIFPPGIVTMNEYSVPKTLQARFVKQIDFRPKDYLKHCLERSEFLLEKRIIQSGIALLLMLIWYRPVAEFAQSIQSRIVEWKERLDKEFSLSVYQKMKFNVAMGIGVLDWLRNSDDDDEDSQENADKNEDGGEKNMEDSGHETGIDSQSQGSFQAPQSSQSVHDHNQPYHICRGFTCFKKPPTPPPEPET
Paired box protein Pax-8, sequence (Q06710 whole entry): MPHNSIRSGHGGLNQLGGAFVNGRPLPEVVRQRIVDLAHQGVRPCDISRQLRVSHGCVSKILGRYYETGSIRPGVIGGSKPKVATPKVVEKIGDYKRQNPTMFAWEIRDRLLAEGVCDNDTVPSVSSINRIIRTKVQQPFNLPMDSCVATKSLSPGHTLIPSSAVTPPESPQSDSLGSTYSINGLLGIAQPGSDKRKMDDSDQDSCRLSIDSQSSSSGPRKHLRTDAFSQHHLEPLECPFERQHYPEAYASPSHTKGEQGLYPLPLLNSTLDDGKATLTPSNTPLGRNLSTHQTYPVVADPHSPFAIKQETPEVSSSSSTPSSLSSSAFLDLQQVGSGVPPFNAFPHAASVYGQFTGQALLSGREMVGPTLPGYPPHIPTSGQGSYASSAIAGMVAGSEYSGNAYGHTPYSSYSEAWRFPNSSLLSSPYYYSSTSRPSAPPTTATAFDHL

Cc1ccc(S(=O)(=O)N(C)c2ccc(C(=O)N3CCN(Cc4ccc5c(c4)OCO5)CC3)cc2)cc1
AC50 [1]: 14 µM (active)

O=C(C[C@@H]1CC[C@H]2[C@@H](COC[C@@H](O)CN2C(=O)c2ccc(F)cc2)O1)NC1Cc2ccccc2C1
AC50 [2]: 1.62 µM (active)
AC50 [1]: 3.86 µM (active)

CCN(CC)CCCN(Cc1cc2cc(OC)c(OC)cc2nc1O)C(=O)Nc1ccccc1
AC50 [3]: > 20 µM (inactive)

Cc1ccc(S(=O)(=O)Nc2cccc3c2O[C@@H](CN(C)S(=O)(=O)c2ccc(Cl)cc2)[C@@H](C)CN([C@H](C)CO)C3=O)cc1
AC50 [4]: 8.14 µM (active)

CC(C)c1ccc(S(=O)(=O)N2CCN(CC(=O)c3ccc(O)c(O)c3)CC2)cc1
AC50 [3]: 4.68 µM (active)
IC50 (Large T antigen): 23.6 µM (active)
IC50 (H9c2): > 79 µM (inactive)

C[C@@H]1CN([C@@H](C)CO)C(=O)c2cccc(NC(=O)CCCCCC(=O)Nc3ccccc3N)c2O[C@H]1CN(C)Cc1ccc2c(c1)OCO2
AC50 [4]: 2.58 µM (active)

C[C@H](CO)N1C[C@H](C)[C@@H](CN(C)Cc2ccncc2)Oc2c(NC(=O)C3CCOCC3)cccc2C1=O
AC50 [4]: 20 µM (inactive)

COc1ccc(/C=C\c2nc(=O)c3ccccc3o2)cc1
IC50 (Vero [5]): 19.9 µM (active)
CC50 (Vero [6]): 16.6 µM (active)
EC50 [7]: 20.9 µM (active)

COc1cccc(/C=C/C(=O)c2ccc(NS(=O)(=O)c3ccc(C)cc3)cc2)c1
AC50 [8]: 2.91 µM (active)
EC50 (Protein RecA): 15.4 µM (active)
IC50 (Vero [5]): 24 µM (active)
AC50 [9]: 9.15 µM (active)
CC50 (Vero [6]): 20.4 µM (active)

CN(C)c1ccc2cc(S(=O)(=O)O)cc(O)c2c1
AC50 [3]: 0.747 µM (active)
IC50 [10]: 42.9 µM (active)

COc1ccc(-c2cc3c(=O)n(CC(=O)NCCCN4CCN(Cc5ccccc5)CC4)ncn3n2)cc1
AC50 (HEK293): 2.22 µM (active)

C[C@H](CO)N1C[C@H](C)[C@H](CN(C)Cc2ccc(C(=O)Nc3ccccc3N)cc2)Oc2ccc(NC(=O)Cc3ccccc3)cc2CC1=O
AC50 [4]: 2.95 µM (active)

C[C@@H]1CN([C@@H](C)CO)C(=O)c2cccc(NC(=O)Nc3ccc(C(F)(F)F)cc3)c2O[C@@H]1CN(C)S(=O)(=O)c1ccc(F)cc1
AC50 [4]: 4.16 µM (active)

CC(C)(O)/C=C/C(=O)C(C)(O)C1C(O)CC2(C)C3CC=C4C(C=C(O)C(=O)C4(C)C)C3(C)C(=O)CC12C (stereo not drawn)
AC50 (Paired box protein Pax-8): < 0.26 µM (active)
AC50 [11]: 4.47 µM (active)
IC50 (Vero [5]): > 25 µM (active)
AC50 [12]: 1.83 µM (active)
CC50 (Vero [6]): 0.08 µM (active)

— ChEMBL document CHEMBL1201862, “PubChem BioAssay data set” (2004)
